# Tested on: HT1080 cells (NRAS)
# Assay: Cell-based pERK HTRF assay in HT1080 cells (Biological Example 5)
# Settings: not given
# Outline: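 A two-hour compound treatment (0.25% DMSO) of cells seeded the previous day preceded lysis and HTRF phospho-ERK1/2 detection. EC50 values were fitted by variable-slope four-parameter regression.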
row,IC50 [nM],SMILES
1,> 1000,"CCN(c1nc(OC[C@@]23CCCN2C[C@H](F)C3)nc2c(F)c(-c3ccc(F)c4sc(N)c(C#N)c34)c(C(F)(F)F)cc12)[C@H]1CCN(C(=O)C(C)C)C1 (atropisomer, axis not shown) [Compound 468]"

# Same assay, conditions: Homo sapiens, HT-1080
row,SMILES,IC50 [nM]
1,N#Cc1c(N)sc2c(F)ccc(-c3c(C(F)(F)F)cc4c(N5CCn6nc(N7CCOCC7)cc6C5)nc(OC[C@@]56CCCN5C[C@H](F)C6)nc4c3F)c12 [Compound 485],> 1000
2,"CCC(=O)N1CC[C@@H](N(CC)c2nc(OC[C@@]34CCCN3C[C@H](F)C4)nc3c(F)c(-c4ccc(F)c5sc(N)c(C#N)c45)c(C(F)(F)F)cc23)[C@H]1C (atropisomer, axis not shown) [Compound 523]",> 1000
3,"CCN(c1nc(OC[C@@]23CCCN2C[C@H](F)C3)nc2c(F)c(-c3ccc(F)c4sc(N)c(C#N)c34)c(C(F)(F)F)cc12)[C@@H]1CCN(C(=O)C2CC2)[C@@H]1C (atropisomer, axis not shown) [Compound 524]",> 1000
4,"CCN(c1nc(OC[C@@]23CCCN2C[C@H](F)C3)nc2c(F)c(-c3ccc(F)c4sc(N)c(C#N)c34)c(C(F)(F)F)cc12)[C@H]1CCS(=O)(=O)C1 (atropisomer, axis not shown) [Compound 492]",> 1000
5,Cc1cc2n(n1)CCN(c1nc(OCC34CCCN3CC(F)C4)nc3c(F)c(-c4ccc(F)c5sc(N)c(C#N)c45)c(C(F)(F)F)cc13)C2 (stereo not shown) [Compound 484],> 1000
6,CCN(c1nc(OC[C@@]23CCCN2C[C@H](F)C3)nc2c(F)c(-c3ccc(F)c4sc(N)c(C#N)c34)c(C(F)(F)F)cc12)[C@H]1C[C@H](C)N(C(=O)C2CC2)C1 [Compound 470],> 1000

# Other lines, results leading:
row,IC50 [nM],SMILES
1,> 1000,"CCN(c1nc(OC[C@@]23CCCN2C[C@H](F)C3)nc2c(F)c(-c3ccc(F)c4sc(N)c(C#N)c34)c(C(F)(F)F)cc12)[C@H]1CCN(C(=O)N(C)C)C1 (atropisomer, axis not shown) [Compound 540, (3S)-3-[[7-(2-amino-3-cyano-7-fluoro-benzothiophen-4-yl)-8-fluoro-2-[[(2R,8S)-2-fluoro-1,2,3,5,6,7-hexahydropyrrolizin-8-yl]methoxy]-6-(trifluoromethyl)quinazolin-4-yl]-ethyl-amino]-N,N-dimethyl-pyrrolidine-1-carboxamide]"
2,> 1000,"CCN(c1nc(OC[C@@]23CCCN2C[C@H](F)C3)nc2c(F)c(-c3ccc(F)c4sc(N)c(C#N)c34)c(C(F)(F)F)cc12)[C@H]1CCN(C(=O)C(C)C)C1 (single isomer, unassigned) [Compound 469]"
3,> 1000,"CCN(c1nc(OC[C@@]23CCCN2C[C@H](F)C3)nc2c(F)c(-c3ccc(F)c4sc(N)c(C#N)c34)c(C(F)(F)F)cc12)[C@H]1CCN(C(=O)OC)C1 (atropisomer, axis not shown) [Compound 541, methyl(3S)-3-[[7-(2-amino-3-cyano-7-fluoro-benzothiophen-4-yl)-8-fluoro-2-[[(2R,8S)-2-fluoro-1,2,3,5,6,7-hexahydropyrrolizin-8-yl]methoxy]-6-(trifluoromethyl)quinazolin-4-yl]-ethyl-amino]pyrrolidine-1-carboxylate]"
4,> 1000,CCOC(=O)N1CC[C@H](N(CC)c2nc(OC[C@@]34CCCN3C[C@H](F)C4)nc3c(F)c(-c4ccc(F)c5sc(N)c(C#N)c45)c(C(F)(F)F)cc23)C1 [Compound 467]

# Tested on: HCT116 cells (KRAS G13D)
# Assay: 3D Cell viability assay in HCT116 cells (Biological Example 6)
# Assay type: cell-based
# Settings: Homo sapiens, HCT-116; HCT116 (KRAS G13D) spheroids, 72 hours
# Outline: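 EC50 came from a four-parameter log(inhibitor) vs response fit of CellTiter-Glo 3D luminescence. Compound exposure lasted 72 h at 37 °C: nine three-fold dilutions, 0.25% final DMSO. Cells were first grown 48 h as 3D spheroids (1000 cells/well, 10% FBS).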
row,IC50 [nM],SMILES
1,100 to 1000,"CCN(c1nc(OC[C@@]23CCCN2C[C@H](F)C3)nc2c(F)c(-c3ccc(F)c4sc(N)c(C#N)c34)c(C(F)(F)F)cc12)[C@H]1CCS(=O)(=O)C1 (atropisomer, axis not shown) [Compound 492]"
2,100 to 1000,"CCN(c1nc(OC[C@@]23CCCN2C[C@H](F)C3)nc2c(F)c(-c3ccc(F)c4sc(N)c(C#N)c34)c(C(F)(F)F)cc12)[C@H]1CCN(C(=O)OC)C1 (atropisomer, axis not shown) [Compound 541, methyl(3S)-3-[[7-(2-amino-3-cyano-7-fluoro-benzothiophen-4-yl)-8-fluoro-2-[[(2R,8S)-2-fluoro-1,2,3,5,6,7-hexahydropyrrolizin-8-yl]methoxy]-6-(trifluoromethyl)quinazolin-4-yl]-ethyl-amino]pyrrolidine-1-carboxylate]"

# Source: patent US20260042764A1, “COMPOSITIONS AND METHODS FOR INHIBITION OF KRAS” (TheRas, Inc., priority 2022, published 2026)
